Source: ChEMBL document CHEMBL5046290, “Design, Synthesis, and Preclinical Profiling of GSK3739936 (BMS-986180), an Allosteric Inhibitor of HIV-1 Integrase with Broad-Spectrum Activity toward 124/125 Polymorphs” (J Med Chem, 2022)

Tests used:
sodium channel = test: Inhibition of sodium channel (unknown origin) at 10 uM; format: toxicity; conditions: human
[1] = Cmax in Sprague-Dawley rat at 5 mg/kg, po by LC-MS/MS analysis; format: ADME, organism-based; design: route oral, dose 5 mg/kg; conditions: in vivo
[2] = Permeability of the compound at pH 5.5 by PAMPA assay; format: ADME; conditions: read-out: permeability
[3] = Oral bioavailability in Sprague-Dawley rat at 5 mg/kg by LC-MS/MS analysis; format: ADME, organism-based; conditions: in vivo
[4] = Displacement of [3H](S)-2-(tert-butoxy)-2-(2-methyl-4-(p-tolyl)quinolin-3-yl)acetic acid from LEDGF-binding site of recombinant T124/T125 polymorphic HIV1 integrase by LIDIA assay; design: species or system Human immunodeficiency virus 1
[5] = Permeability of the compound at pH 7.4 by PAMPA assay; format: ADME; conditions: read-out: permeability
[6] = tested on: Human immunodeficiency virus 1; test: Antiviral activity against recombinant HIV1 NLRep-Rluc harbouring polymorphic T124/T125 integrase infected in human MT-2 cells assessed as inhibition of virus growth in presence of fetal bovine serum by measuring luciferase activity after 5 days; format: functional, organism-based, MT2; conditions: Human immunodeficiency virus 1, NLRep, MT2, 120 h
[7] = Volume of distribution at steady state in Cynomolgus monkey at 1 mg/kg, iv by LC-MS/MS analysis; format: ADME, organism-based, Macaca fascicularis; conditions: in vivo, read-out: Vdss
[8] = Clearance in CD-1 mouse at 1 mg/kg, iv by LC-MS/MS analysis; format: ADME, organism-based; conditions: in vivo
[9] = Toxicity in rat assessed as histological changes in spleen at 500 mg/kg/day; format: organism-based; conditions: in vivo
[10] = Stability in pH 4 for 2 weeks at 50 degC; format: physicochemical; conditions: buffer, pH 4, 336 h
CYP [11] = test: Half life in dog assessed as CYP mediated metabolism in presence of […] by phase I metabolic oxidation assay; format: ADME, Canis lupus familiaris
[12] = Toxicity in rat assessed as vacuolation of kidney at 500 mg/kg/day; format: organism-based; conditions: in vivo
[13] = Toxicity in rat at 50 to 500 mg/kg in cannulated jugular vein; format: organism-based; conditions: in vivo, iv, dose 50-500 mg/kg
[14] = Tmax in CD-1 mouse at 5 mg/kg, po by LC-MS/MS analysis; format: ADME, organism-based; conditions: in vivo
[15] = Oral bioavailability in cynomolgus monkey at 2 mg/kg by LC-MS/MS analysis; format: ADME, organism-based, Macaca fascicularis; conditions: in vivo
[16] = Volume of distribution at steady state in Sprague-Dawley rat at 1 mg/kg, iv by LC-MS/MS analysis; format: ADME, organism-based; conditions: in vivo, read-out: Vdss
Cytochrome P450 3A4 = Cytochrome P450 3A4 (Homo sapiens, UniProt P08684); test: Inhibition of human CYP3A4; format: ADME
[17] = Cmax in Beagle dog at 2 mg/kg, po by LC-MS/MS analysis; format: ADME, organism-based, Canis lupus familiaris; design: route oral, dose 2 mg/kg; conditions: in vivo
CYP [18] = target: CYP (Homo sapiens, UniProt P04798+P05177+P05181+P08684+P10632+P10635+P11509+P11712+P13584+P20813+P20815+P20853+P24462+P24903+P33260+P33261+P51589+P78329+P98187+Q02928+Q08477+Q16678+Q16696+Q5TCH4+Q6VVX0+Q7Z449+Q8TAV3+Q96SQ9+Q9HB55); test: Half life in human assessed as CYP mediated metabolism in presence of […] by phase I metabolic oxidation assay; format: ADME, protein assay
[19] = Cytotoxicity against human MT2 cells assessed as cell viability measured after 4 days by XTT assay; format: toxicity, cell-based; conditions: time 4 day
[20] = tested on: Human immunodeficiency virus 1; test: Antiviral activity against recombinant HIV1 NLRep-Rluc harbouring polymorphic AA infected in human MT-2 cells assessed as inhibition of virus growth in presence of fetal bovine serum by measuring luciferase activity after 5 days; format: functional, organism-based; conditions: Human immunodeficiency virus 1, NLRep, MT2, 120 h
[21] = AUC in cynomolgus monkey at 2 mg/kg, po by LC-MS/MS analysis; format: ADME, organism-based, Macaca fascicularis; design: dose 2 mg/kg; conditions: in vivo
[22] = Solubility of the compound using amorphous form of sample; format: physicochemical
[23] = Bioavailability in Beagle dog at 2 mg/kg, po by LC-MS/MS analysis; format: ADME, organism-based, Canis lupus familiaris; conditions: in vivo
Cytochrome P450 1A2 = target: T1, Cytochrome P450 1A2 (Homo sapiens, UniProt P05177); test: Inhibition of human CYP1A2; format: ADME
T1 sequence (P05177 whole entry): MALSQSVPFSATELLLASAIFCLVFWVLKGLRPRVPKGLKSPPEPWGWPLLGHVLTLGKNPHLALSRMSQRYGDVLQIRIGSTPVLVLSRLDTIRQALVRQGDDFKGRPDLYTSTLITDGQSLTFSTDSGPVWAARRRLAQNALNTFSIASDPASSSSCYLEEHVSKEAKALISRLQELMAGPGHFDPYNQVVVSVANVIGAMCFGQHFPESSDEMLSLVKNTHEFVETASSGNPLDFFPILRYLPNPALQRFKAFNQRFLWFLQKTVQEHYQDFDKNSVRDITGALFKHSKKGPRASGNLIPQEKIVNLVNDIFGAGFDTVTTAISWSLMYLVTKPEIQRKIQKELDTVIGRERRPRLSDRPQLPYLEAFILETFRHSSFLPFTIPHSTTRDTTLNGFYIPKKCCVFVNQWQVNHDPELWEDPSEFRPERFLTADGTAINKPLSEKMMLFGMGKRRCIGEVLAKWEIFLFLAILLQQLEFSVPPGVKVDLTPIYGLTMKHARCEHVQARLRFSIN

[24] = Plasma protein binding in rat; format: ADME, cell-free; conditions: read-out: PPB (converted)
Cytochrome P450 2D6 = Cytochrome P450 2D6 (Homo sapiens, UniProt P10635); test: Inhibition of human CYP2D6; format: ADME
[25] = Oral bioavailability in CD-1 mouse at 5 mg/kg by LC-MS/MS analysis; format: ADME, organism-based; conditions: in vivo
[26] = AUC in CD-1 mouse at 5 mg/kg, po by LC-MS/MS analysis; format: ADME, organism-based; design: dose 5 mg/kg; conditions: in vivo
[27] = Metabolic stability in human liver microsome assessed half life at 0.5 uM by LC-MS/MS analysis; format: ADME; conditions: liver microsomes
[28] = Toxicity in dog assessed as vomiting at >=100 mg/kg, po administered as single dose; format: organism-based, Canis lupus familiaris; conditions: in vivo
[29] = Cardiotoxicity in dog heart assessed as decrease in blood pressure at 300 mg/kg; format: toxicity, organism-based, Canis lupus familiaris; design: scale not given: the % may be the effect or the level left; conditions: in vivo
Salmonella typhimurium [30] = test: Genotoxicity in Salmonella typhimurium TA102 by Ames test; format: toxicity, organism-based; conditions: salmonella enterica subsp. enterica serovar typhimurium
[31] = Toxicity in rat assessed as change in parathyroid gland at 500 mg/kg/day; format: organism-based; conditions: in vivo
Salmonella typhimurium [32] = test: Mutagenicity in Salmonella Typhimurium using Aroclor 1254 induced rat liver S9 fraction by […] assay; format: toxicity, organism-based; conditions: salmonella enterica subsp. enterica serovar typhimurium
[33] = Toxicity in rat assessed as distended stomach at 500 mg/kg/day; format: organism-based; conditions: in vivo
[34] = Plasma protein binding in human; format: ADME, cell-free; conditions: read-out: PPB (converted)
[35] = tested on: Human immunodeficiency virus 1; test: Antiviral activity against recombinant HIV1 NLRep-Rluc harbouring polymorphic AT infected in human MT-2 cells assessed as inhibition of virus growth in presence of fetal bovine serum by measuring luciferase activity after 5 days; format: functional, organism-based; conditions: Human immunodeficiency virus 1, NLRep, MT2, 120 h
[36] = Cardiotoxicity in dog heart assessed as increase in heart rate at 300 mg/kg; format: toxicity, organism-based, Canis lupus familiaris; conditions: in vivo
Cytochrome P450 2C9 = Cytochrome P450 2C9 (Homo sapiens, UniProt P11712); test: Inhibition of human CYP2C9; format: ADME
[37] = Clearance in Sprague-Dawley rat at 1 mg/kg, iv by LC-MS/MS analysis; format: ADME, organism-based; conditions: in vivo

Cytochrome P450 3A4, sequence (P08684 whole entry): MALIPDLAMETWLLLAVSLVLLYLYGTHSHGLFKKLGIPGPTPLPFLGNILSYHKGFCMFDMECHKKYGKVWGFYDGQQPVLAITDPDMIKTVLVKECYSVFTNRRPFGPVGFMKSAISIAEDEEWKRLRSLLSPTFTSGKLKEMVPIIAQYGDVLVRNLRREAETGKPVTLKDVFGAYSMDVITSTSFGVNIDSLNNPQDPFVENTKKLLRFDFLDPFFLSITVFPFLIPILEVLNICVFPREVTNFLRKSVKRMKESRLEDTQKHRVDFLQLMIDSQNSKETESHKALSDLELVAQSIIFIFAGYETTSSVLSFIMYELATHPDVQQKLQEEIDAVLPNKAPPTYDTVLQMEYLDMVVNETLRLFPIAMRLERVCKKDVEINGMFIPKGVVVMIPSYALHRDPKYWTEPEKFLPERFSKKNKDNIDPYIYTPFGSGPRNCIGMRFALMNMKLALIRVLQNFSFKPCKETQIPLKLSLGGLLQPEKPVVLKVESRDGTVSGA
Cytochrome P450 2C9, sequence (P11712 whole entry): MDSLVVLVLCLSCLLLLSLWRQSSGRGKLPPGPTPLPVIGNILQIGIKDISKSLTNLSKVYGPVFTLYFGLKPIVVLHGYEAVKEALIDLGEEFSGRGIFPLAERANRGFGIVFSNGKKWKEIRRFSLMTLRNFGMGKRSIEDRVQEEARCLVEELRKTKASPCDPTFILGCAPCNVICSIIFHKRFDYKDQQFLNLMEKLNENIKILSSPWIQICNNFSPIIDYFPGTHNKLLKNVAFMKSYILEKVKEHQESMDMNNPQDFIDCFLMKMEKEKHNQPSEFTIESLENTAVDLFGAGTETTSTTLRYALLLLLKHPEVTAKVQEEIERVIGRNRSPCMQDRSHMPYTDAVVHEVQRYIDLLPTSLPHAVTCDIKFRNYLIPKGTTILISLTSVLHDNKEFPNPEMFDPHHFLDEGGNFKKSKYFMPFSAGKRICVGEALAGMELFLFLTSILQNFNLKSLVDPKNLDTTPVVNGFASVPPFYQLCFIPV
Cytochrome P450 2D6, sequence (P10635 whole entry): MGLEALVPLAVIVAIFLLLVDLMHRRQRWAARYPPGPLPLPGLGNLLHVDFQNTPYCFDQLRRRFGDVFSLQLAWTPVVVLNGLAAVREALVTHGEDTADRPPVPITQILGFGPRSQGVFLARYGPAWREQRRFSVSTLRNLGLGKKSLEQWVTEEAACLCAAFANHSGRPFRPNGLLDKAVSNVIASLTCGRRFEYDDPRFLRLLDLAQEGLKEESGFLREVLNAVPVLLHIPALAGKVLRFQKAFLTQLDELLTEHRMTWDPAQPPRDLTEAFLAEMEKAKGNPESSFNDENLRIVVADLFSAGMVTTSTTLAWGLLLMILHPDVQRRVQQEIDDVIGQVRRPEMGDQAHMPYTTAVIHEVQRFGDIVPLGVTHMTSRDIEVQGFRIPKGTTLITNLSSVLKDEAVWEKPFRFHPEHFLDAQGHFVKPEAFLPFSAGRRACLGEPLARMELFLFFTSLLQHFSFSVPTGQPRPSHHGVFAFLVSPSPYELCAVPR

Cc1nc(C)c([C@H](OC(C)(C)C)C(=O)O)c(N2CCC(C)(C)CC2)c1-c1ccc(OCCc2ccc(F)cc2)cc1
inhibition at 10 µM (sodium channel): 79% | Cmax [1]: 2760 nM | Papp [2]: 89.6 ×10⁻⁶ cm/s | bioavailability [3]: 52% | IC50 [4]: 11.1 nM | Papp [5]: 50.5 ×10⁻⁶ cm/s | EC50 [6]: 1.7 nM | Vd [7]: 1.5 L/kg | clearance [8]: 5.4 mL/min/kg | Activity [9]: Toxic | Stability [10]: Stable | half-life (CYP [11]): > 2 h | Activity [12]: Toxic | Activity [13]: Non-Toxic | Tmax [14]: 5 h | bioavailability [15]: 54% | Vd [16]: 0.8 L/kg | IC50 (Cytochrome P450 3A4): ≥ 24300 nM | Cmax [17]: 2960 nM | half-life (CYP [18]): 1.42 h | CC50 at 96 h [19]: ≥ 33500 nM | EC50 [20]: 3.2 nM | AUC [21]: 2.23 µM·h | solubility [22]: < 1 µg/mL | bioavailability [23]: 75% | IC50 (Cytochrome P450 1A2): ≥ 24300 nM | fraction unbound [24]: 0.19 | IC50 (Cytochrome P450 2D6): ≥ 24300 nM | bioavailability [25]: 89% | AUC [26]: 24.5 µM·h | half-life at 0.5 µM [27]: 1.42 h | Activity [28]: Toxic | Activity [29]: 6% | Activity (Salmonella typhimurium [30]): Non-Toxic | Activity [31]: Toxic | Activity (Salmonella typhimurium [32]): Non-Toxic | Activity [33]: Toxic | fraction unbound [34]: 0.2 | EC50 [35]: 5.1 nM | Activity [36]: 15% | IC50 (Cytochrome P450 2C9): ≥ 24300 nM | clearance [37]: 5.5 mL/min/kg
